Experiments:
GetI = target: T1, GetI (Streptomyces sp. L-49973, UniProt E0WFM2); experiment: preparative-scale 4-hydroxylation; format: cell-based; settings: alpha-ketoglutarate, Fe(II)
T1 sequence (E0WFM2 1-345): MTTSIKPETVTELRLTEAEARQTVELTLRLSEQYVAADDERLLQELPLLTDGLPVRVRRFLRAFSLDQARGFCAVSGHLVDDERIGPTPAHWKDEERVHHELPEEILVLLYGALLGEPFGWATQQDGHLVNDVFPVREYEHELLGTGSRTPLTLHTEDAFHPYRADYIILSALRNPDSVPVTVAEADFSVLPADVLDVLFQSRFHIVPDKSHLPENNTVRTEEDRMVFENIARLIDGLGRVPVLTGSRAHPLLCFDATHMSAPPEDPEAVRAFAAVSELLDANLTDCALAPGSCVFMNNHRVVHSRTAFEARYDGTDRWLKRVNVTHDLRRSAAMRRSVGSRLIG

GetF [1] = target: T2, GetF (Streptomyces sp. L-49973, UniProt E0WFM0); experiment: preparative-scale hydroxylation; format: cell-based; settings: alpha-ketoglutarate, Fe(II)
T2 sequence (E0WFM0 1-363): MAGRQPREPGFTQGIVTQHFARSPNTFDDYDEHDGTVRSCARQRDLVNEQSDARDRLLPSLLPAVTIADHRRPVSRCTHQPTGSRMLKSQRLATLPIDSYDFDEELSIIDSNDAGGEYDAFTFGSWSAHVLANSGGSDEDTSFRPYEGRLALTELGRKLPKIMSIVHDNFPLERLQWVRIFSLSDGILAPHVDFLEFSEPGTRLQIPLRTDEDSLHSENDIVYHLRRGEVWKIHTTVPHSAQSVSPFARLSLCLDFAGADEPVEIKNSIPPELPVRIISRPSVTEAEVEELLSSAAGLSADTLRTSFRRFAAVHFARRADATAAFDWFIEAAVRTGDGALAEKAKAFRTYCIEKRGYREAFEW

GriE = target: T3, GriE (Streptomyces muensis, UniProt A0A0E3URV8); experiment: LCMS of C5 hydroxylation; format: biochemical; settings: alpha-ketoglutarate, Fe(II), ascorbate
T3 sequence (A0A0E3URV8 1-270): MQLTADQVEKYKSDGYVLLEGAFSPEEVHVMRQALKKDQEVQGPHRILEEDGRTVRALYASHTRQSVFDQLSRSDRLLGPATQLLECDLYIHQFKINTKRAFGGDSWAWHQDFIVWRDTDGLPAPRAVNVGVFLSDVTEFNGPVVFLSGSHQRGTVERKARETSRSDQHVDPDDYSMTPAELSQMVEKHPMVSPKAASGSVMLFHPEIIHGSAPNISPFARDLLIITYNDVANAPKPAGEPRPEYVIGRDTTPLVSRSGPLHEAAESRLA

GlbB = target: T4, GlbB (Caldimonas brevitalea, UniProt A8KCI8); experiment: 4-hydroxylation; format: biochemical; settings: alpha-ketoglutarate, Fe(II)
T4 sequence (A8KCI8 1-286): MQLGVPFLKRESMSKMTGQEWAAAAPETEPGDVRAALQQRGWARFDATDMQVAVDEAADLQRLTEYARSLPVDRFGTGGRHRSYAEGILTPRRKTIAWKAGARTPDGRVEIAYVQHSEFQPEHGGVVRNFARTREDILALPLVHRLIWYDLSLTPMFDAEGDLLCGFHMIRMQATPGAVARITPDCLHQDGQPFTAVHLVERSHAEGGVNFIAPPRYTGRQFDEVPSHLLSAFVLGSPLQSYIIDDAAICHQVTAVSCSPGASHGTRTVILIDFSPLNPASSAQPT

KDO1 = target: T5, KDO1 (Catenulispora acidiphila, UniProt C7QJ42); experiment: gram-scale 3-hydroxylation in E. coli lysate; format: biochemical; settings: alpha-ketoglutarate, Fe(II)
T5 sequence (C7QJ42 1-358): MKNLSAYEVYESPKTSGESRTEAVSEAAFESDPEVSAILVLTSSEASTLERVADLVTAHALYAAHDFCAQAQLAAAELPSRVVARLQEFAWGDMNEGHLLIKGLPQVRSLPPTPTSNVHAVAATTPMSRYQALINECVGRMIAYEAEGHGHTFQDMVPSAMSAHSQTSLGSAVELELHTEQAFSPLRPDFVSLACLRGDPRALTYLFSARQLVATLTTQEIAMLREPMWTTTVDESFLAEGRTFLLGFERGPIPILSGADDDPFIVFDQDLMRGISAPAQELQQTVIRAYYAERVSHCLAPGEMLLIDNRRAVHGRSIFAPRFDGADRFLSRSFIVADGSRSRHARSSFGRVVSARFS

GetF [2] = target: T2, GetF; experiment: C3 hydroxylation, product isolated after Boc protection; format: cell-based; settings: alpha-ketoglutarate, Fe(II)

Question: How did the “preparative-scale 4-hydroxylation” value (GetI) turn out when `NC(=O)NCCC[C@H](N)C(=O)O` [L-Cit] was run?
Answer: Biocatalytic hydroxylation of L-Pip and L-Cit was performed on preparative scale with GetF and GetI

Question: With `O=C(O)[C@@H]1CCCCN1` [L-Pip] as the compound, how does the preparative-scale hydroxylation (GetF [1]) read?
Answer: Biocatalytic hydroxylation of L-Pip and L-Cit was performed on preparative scale with GetF and GetI

Question: How did the “LCMS of C5 hydroxylation” value (GriE) turn out when `CC(C)C[C@H](N)C(=O)O` [L-leucine] was run?
Answer: GriE revealed a highly active enzyme that is capable of hydroxylating L-leucine

Question: With `NCCCC[C@H](N)C(=O)O` [L-lysine] as the compound, how does the 4-hydroxylation (GlbB) read?
Answer: GlbB was shown to be a highly efficient enzyme capable of hydroxylating L-lysine

Question: And the “gram-scale 3-hydroxylation in E. coli lysate” value (KDO1)?
Answer: optimizing the biocatalytic hydroxylation with lysates of E. coli expressing KDO1

Question: For `C[C@H]1CCN[C@@H]1C(=O)O` [compound 15, proline derivative 15], which “C3 hydroxylation, product isolated after Boc protection” value (GetF [2]) is on record?
Answer: The final C3 hydroxylation was performed with GetF
